Test results taken from PMC10724293, “New ruthenium-xanthoxylin complex eliminates colorectal cancer stem cells by targeting the heat shock protein 90 chaperone” (Cell Death & Disease, 2023).
Several values for one entry are separate records, joined by “and”; a condition that tells them apart may be missing. Identical values can stand only once.

Key:
HepG2 cells = details: C. B-17 SCID mice engrafted with HepG2 cells; cited from earlier work
HCT116 cells [1] = assay: qPCR array of human cancer drug target genes; type: cell-based; set-up: key to RQ, gene BCL2 / RQ, gene IGF1R / RQ, gene KDR / RQ, gene EGFR / RQ, gene CTSB / RQ, gene RHOA / RQ, gene ESR1 / RQ, gene MDM2 / RQ, gene MDM4 / RQ, gene TOP2A / RQ, gene TOP2B / RQ, gene ATF2 / RQ, gene NFKB1 / RQ, gene TP53 / RQ, gene AURKC / RQ, gene CDC25A / RQ, gene CDK1 / RQ, gene CDK2 / RQ, gene CDK5 / RQ, gene CDK8 / RQ, gene NTN3 / RQ, gene HRAS / RQ, gene KRAS: 2^−ΔΔCT relative quantification vs DMSO control (calibrator = 1); details: 10 µM, 12 h; CTL = 1.0
Experimental: Total RNA was isolated using the RNeasy Plus Mini Kit (Qiagen; Hilden, Germany) according to the manufacturer’s instructions. The RNA was tested for purity and quantified using a NanoDrop® 1000 spectrophotometer (Thermo Fisher Scientific, Waltham, Massachusetts, USA). The Superscript VILOTM Kit was used for RNA reverse transcription (Invitrogen Corporation; Waltham, MA, USA). TaqMan® array human cancer drug targets 96-well plate, fast (ID RPRWENH, Applied BiosystemsTM, Foster City, CA, USA) was used for gene expression quantification by qPCR. The reactions were carried out in an ABI ViiA7 system (Applied BiosystemsTM).
The cycle conditions were 2 min at 50 °C, 10 min at 95 °C, and 40 cycles of 15 s at 95 °C and 1 min at 60 °C. All experiments were carried out in DNase/RNase-free environments. The 2^−ΔΔCT method was used to calculate the relative quantification (RQ) of mRNA expression using Gene Expression SuiteTM Software (Applied BiosystemsTM), and cells treated with the negative control (0.2% DMSO) served as a calibrator. The RQs of the reference genes HPRT1, TFRC and YWHAZ were used to normalize the reactions.

HCT116 cells [2] = assay: Colony-forming assay; type: cell-based, human; details: 24, 48, 72 h treatment, 14 days culture
Experimental: To test clonogenic ability, 1000 cells were seeded in 6-well plates with 6 ml of complete medium and incubated with the drug for 24, 48, and 72 h. The medium was then changed to drug-free fresh medium and cultured for a total of 14 days. The cells were then fixed in methanol and stained with 0.5% crystal violet. The number of colonies with more than 50 cells was counted using an optical microscope (Nikon, TS100).

PBMC = assay: Alamar blue cytotoxicity assay, noncancerous cells; type: cell-based, human; details: 72 h, read-out: IC50 and 95%CI
Experimental: (§1) The Alamar blue assay was used to determine cell viability as previously described. Cells were seeded into 96-well plates at a density of 7 × 10^3 cells per well for adherent cells or 3 × 10^4 cells per well for suspended cells. The drug was added to each well after 24 h of incubation for adherent cells or immediately for suspended cells and incubated for an additional 72 h. […] Each well received 100 µM resazurin (Sigma-Aldrich Co. St. Louis, MO, United States) four (for cell lines) or 24 (for primary culture) h before the end of the incubation. A SpectraMax 190 Microplate Reader (Molecular Devices, Sunnyvale, CA, USA) was used to measure absorbance at 570 and 600 nm.

MRC-5 = assay: Alamar blue cytotoxicity assay, noncancerous cells; type: cell-based, human; details: MRC-5 noncancerous cells, 72 h, read-out: IC50 and 95%CI
Experimental: as §1

BJ = assay: Alamar blue cytotoxicity assay, noncancerous cells; type: cell-based, human; details: 72 h, read-out: IC50 and 95%CI
Experimental: as §1

For cis-[Ru(phen)2(xant)](PF6) [RXC], which tumor growth (HepG2 cells) is on record?
Its tumor growth is “suppressed tumor growth”.

What about the “RQ, gene ABCC1” value (HCT116 cells [1]) of the same substance?
Its value is 0.777.

What about the “RQ, gene AKT1” value (HCT116 cells [1]) of the same substance?
Its value is 0.624.

What about the “RQ, gene AKT2” value (HCT116 cells [1]) of the same substance?
Its value is 0.896.

And the “RQ, gene ATF2” value (HCT116 cells [1])?
Its value is 0.856.

And the “RQ, gene AURKA” value (HCT116 cells [1])?
The value was 0.343.

And the “RQ, gene AURKB” value (HCT116 cells [1])?
Its value is 0.562.

And the “RQ, gene AURKC” value (HCT116 cells [1])?
Its value is 0.498.

And the “RQ, gene BCL2” value (HCT116 cells [1])?
The value was 0.944.

And the “RQ, gene BIRC5” value (HCT116 cells [1])?
Its value is 0.499.

And the “RQ, gene CDC25A” value (HCT116 cells [1])?
Its value is 1.174.

And the “RQ, gene CDK1” value (HCT116 cells [1])?
The value was 1.021.

What about the “RQ, gene CDK2” value (HCT116 cells [1]) of the same substance?
Its value is 1.057.

And the “RQ, gene CDK4” value (HCT116 cells [1])?
The value was 1.065.

What about the “RQ, gene CDK5” value (HCT116 cells [1]) of the same substance?
The value was 0.446.

What about the “RQ, gene CDK7” value (HCT116 cells [1]) of the same substance?
The value was 1.621.

And the “RQ, gene CDK8” value (HCT116 cells [1])?
Its value is 0.943.

And the “RQ, gene CDK9” value (HCT116 cells [1])?
The value was 0.986.

And the “RQ, gene CTSB” value (HCT116 cells [1])?
The value was 1.307.

What about the “RQ, gene CTSD” value (HCT116 cells [1]) of the same substance?
Its value is 0.826.

And the “RQ, gene CTSL” value (HCT116 cells [1])?
The value was 1.073.

What about the “RQ, gene CTSS” value (HCT116 cells [1]) of the same substance?
Its value is 0.500.

And the “RQ, gene EGFR” value (HCT116 cells [1])?
Its value is 1.135.

What about the “RQ, gene ERBB2” value (HCT116 cells [1]) of the same substance?
Its value is 0.312.

What about the “RQ, gene ERBB3” value (HCT116 cells [1]) of the same substance?
The value was 0.814.

What about the “RQ, gene ESR1” value (HCT116 cells [1]) of the same substance?
Its value is 1.523.

And the “RQ, gene ESR2” value (HCT116 cells [1])?
Its value is 1.673.

And the “RQ, gene FLT4” value (HCT116 cells [1])?
The value was 3.841.

What about the “RQ, gene GRB2” value (HCT116 cells [1]) of the same substance?
Its value is 1.220.

What about the “RQ, gene GSTP1” value (HCT116 cells [1]) of the same substance?
The value was 0.609.

What about the “RQ, gene HDAC1” value (HCT116 cells [1]) of the same substance?
The value was 0.509.

And the “RQ, gene HDAC2” value (HCT116 cells [1])?
The value was 0.509.

What about the “RQ, gene HDAC3” value (HCT116 cells [1]) of the same substance?
Its value is 0.879.

What about the “RQ, gene HDAC4” value (HCT116 cells [1]) of the same substance?
The value was 1.233.

What about the “RQ, gene HDAC6” value (HCT116 cells [1]) of the same substance?
Its value is 0.969.

And the “RQ, gene HDAC7” value (HCT116 cells [1])?
Its value is 0.975.

And the “RQ, gene HDAC8” value (HCT116 cells [1])?
Its value is 0.826.

And the “RQ, gene HDAC11” value (HCT116 cells [1])?
Its value is 1.433.

What about the “RQ, gene HIF1A” value (HCT116 cells [1]) of the same substance?
Its value is 0.663.

And the “RQ, gene HRAS” value (HCT116 cells [1])?
Its value is 1.867.

What about the “RQ, gene HSP90AA1” value (HCT116 cells [1]) of the same substance?
Its value is 0.353 and 0.35.

And the “RQ, gene HSP90B1” value (HCT116 cells [1])?
Its value is 0.285 and 0.28.

And the “RQ, gene IGF1R” value (HCT116 cells [1])?
The value was 1.146.

What about the “RQ, gene IRF5” value (HCT116 cells [1]) of the same substance?
The value was 1.472.

And the “RQ, gene KDR” value (HCT116 cells [1])?
Its value is 0.896.

What about the “RQ, gene KRAS” value (HCT116 cells [1]) of the same substance?
The value was 2.847.

What about the “RQ, gene MDM2” value (HCT116 cells [1]) of the same substance?
The value was 2.327.

And the “RQ, gene MDM4” value (HCT116 cells [1])?
Its value is 1.960.

And the “RQ, gene MTOR” value (HCT116 cells [1])?
The value was 0.595.

And the “RQ, gene NFKB1” value (HCT116 cells [1])?
Its value is 1.055.

What about the “RQ, gene NRAS” value (HCT116 cells [1]) of the same substance?
The value was 0.893.

What about the “RQ, gene NTN3” value (HCT116 cells [1]) of the same substance?
The value was 2.364.

What about the “RQ, gene PARP1” value (HCT116 cells [1]) of the same substance?
The value was 0.485.

And the “RQ, gene PARP4” value (HCT116 cells [1])?
The value was 0.791.

What about the “RQ, gene PDGFRB” value (HCT116 cells [1]) of the same substance?
The value was 2.249.

What about the “RQ, gene PIK3C2A” value (HCT116 cells [1]) of the same substance?
Its value is 1.177.

And the “RQ, gene PIK3C3” value (HCT116 cells [1])?
The value was 1.485.

And the “RQ, gene PIK3CA” value (HCT116 cells [1])?
Its value is 0.956.

What about the “RQ, gene PLK1” value (HCT116 cells [1]) of the same substance?
Its value is 0.890.

What about the “RQ, gene PLK2” value (HCT116 cells [1]) of the same substance?
The value was 1.023.

What about the “RQ, gene PLK3” value (HCT116 cells [1]) of the same substance?
The value was 1.749.

And the “RQ, gene PLK4” value (HCT116 cells [1])?
The value was 1.081.

What about the “RQ, gene PRKCA” value (HCT116 cells [1]) of the same substance?
The value was 0.567.

And the “RQ, gene PRKCB” value (HCT116 cells [1])?
The value was 0.993.

And the “RQ, gene PRKCD” value (HCT116 cells [1])?
Its value is 1.557.

What about the “RQ, gene PRKCE” value (HCT116 cells [1]) of the same substance?
The value was 1.461.

And the “RQ, gene PTGS2” value (HCT116 cells [1])?
The value was 1.461.

And the “RQ, gene RHOA” value (HCT116 cells [1])?
The value was 0.937.

What about the “RQ, gene RHOB” value (HCT116 cells [1]) of the same substance?
Its value is 1.762.

What about the “RQ, gene TERT” value (HCT116 cells [1]) of the same substance?
The value was 0.866.

And the “RQ, gene TNKS” value (HCT116 cells [1])?
The value was 2.951.

What about the “RQ, gene TOP2A” value (HCT116 cells [1]) of the same substance?
The value was 0.769.

And the “RQ, gene TOP2B” value (HCT116 cells [1])?
Its value is 1.055.

And the “RQ, gene TP53” value (HCT116 cells [1])?
Its value is 1.058.

And the “RQ, gene TXN” value (HCT116 cells [1])?
The value was 1.184.

And the “RQ, gene TXNRD1” value (HCT116 cells [1])?
Its value is 3.038.

And the clonogenic survival (HCT116 cells [2])?
Its clonogenic survival is “inhibit the clonogenic survival”.

And the IC50 (PBMC)?
Its IC50 is 4.93 µM.

What about the IC50 (MRC-5) of the same substance?
Its IC50 is 21.4 µM.

What about the IC50 (BJ) of the same substance?
The IC50 was 0.76 µM.
